The test concerns the target T1, SIRT1 (Homo sapiens, UniProt Q96EB6).
T1 sequence (Q96EB6 1-747): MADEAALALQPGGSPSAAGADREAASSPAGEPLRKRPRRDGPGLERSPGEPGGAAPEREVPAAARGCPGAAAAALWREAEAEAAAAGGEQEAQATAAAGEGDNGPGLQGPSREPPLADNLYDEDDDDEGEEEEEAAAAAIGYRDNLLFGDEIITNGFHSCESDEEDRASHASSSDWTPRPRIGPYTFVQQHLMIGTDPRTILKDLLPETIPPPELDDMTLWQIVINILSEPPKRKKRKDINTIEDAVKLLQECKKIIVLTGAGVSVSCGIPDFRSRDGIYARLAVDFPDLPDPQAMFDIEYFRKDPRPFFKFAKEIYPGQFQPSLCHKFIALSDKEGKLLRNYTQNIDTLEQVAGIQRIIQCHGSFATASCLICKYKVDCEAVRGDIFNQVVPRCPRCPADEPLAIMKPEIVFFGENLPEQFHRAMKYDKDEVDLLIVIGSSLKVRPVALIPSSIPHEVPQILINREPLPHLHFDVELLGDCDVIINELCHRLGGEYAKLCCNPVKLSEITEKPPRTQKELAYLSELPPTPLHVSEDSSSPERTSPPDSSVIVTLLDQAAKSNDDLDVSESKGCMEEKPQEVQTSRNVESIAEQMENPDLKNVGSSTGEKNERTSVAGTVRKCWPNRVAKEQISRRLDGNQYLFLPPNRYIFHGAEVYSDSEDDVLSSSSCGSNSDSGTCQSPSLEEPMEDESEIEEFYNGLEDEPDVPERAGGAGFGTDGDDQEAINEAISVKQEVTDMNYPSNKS
The test can be described thus: Trp mass spectrometry assay of SIRT1 activation (Ac-R-H-K-K(Ac)-W-NH2 peptide). The test is classed as biochemical. To be noted: Trp peptide 0.5 μM, 120 μM βNAD+, 10 nM SIRT1, 25 min at 25° C.; for Emax: 25 min, relative to control (100%), read-out: TRP MAX RESP (percent maximum fold activation). In short, it runs like this:
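Mass spectrometry read-out (OAADPR formed, or deacetylated Trp peptide) after a 25 min NAD-dependent deacetylation by E. coli-expressed His-SIRT1, stopped with formic acid.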

As to `O=C(N[C@H](c1ccccc1)C(F)(F)F)c1ccc2c(n1)N(C(=O)Nc1cc(OC[C@H](O)CO)ccn1)[C@H]1CCN2C1` [Example 184, (4S)—N5-(4-((R)-2,3-dihydroxypropoxy)pyridin-2-yl)-N7-((R)-2,2,2-trifluoro-1-phenylethyl)-3,4-dihydro-1,4-methanopyrido[2,3-b][1,4]diazepine-5,7(2H)-dicarboxamide], the Emax was greater than 150% and the “TRP Activity (EC1.5, concentration of test compound that results in 150% activation of SIRT1)” value was “A (EC1.5<1 μM)”.

With `O=C(NC[C@@H](O)C(F)(F)F)c1ccc2c(n1)N(C(=O)Nc1ccccn1)[C@H]1CCN2C1` [Example 34, (4S)—N5-(pyridin-2-yl)-N7-((R)-3,3,3-trifluoro-2-hydroxypropyl)-3,4-dihydro-1,4-methanopyrido[2,3-b][1,4]diazepine-5,7(2H)-dicarboxamide], the Emax is greater than 150% and the “TRP Activity (EC1.5, concentration of test compound that results in 150% activation of SIRT1)” value is listed as “A (EC1.5<1 μM)”.

Regarding `O=C(NC1CCCOC1)c1ccc2c(n1)N(C(=O)Nc1ccccn1)[C@H]1CCN2C1` (stereo partly drawn) [Example 5, (4S)—N-5-(pyridin-2-yl)-N-7-(tetrahydro-2H-pyran-3-yl)-3,4-dihydro-1,4-methanopyrido [2,3-b] [1, 4] diazepine-5, 7(2H)-dicarboxamide], the Emax is greater than 150% and the “TRP Activity (EC1.5, concentration of test compound that results in 150% activation of SIRT1)” value is reported as “B (EC1.5 1-25 μM)”.

As for `CC[C@H](C)NC(=O)c1ccc2c(n1)N(C(=O)Nc1ccccn1)[C@H]1CCN2C1` [Example 26, (4S)—N7-((S)-sec-butyl)-N5-(pyridin-2-yl)-3,4-dihydro-1,4-methanopyrido[2,3-b][1,4]diazepine-5,7(2H)-dicarboxamide], the Emax was greater than 150% and the “TRP Activity (EC1.5, concentration of test compound that results in 150% activation of SIRT1)” value is given as “A (EC1.5<1 μM)”.

As to `O=C(N[C@@H]1CC1(F)F)c1ccc2c(n1)N(C(=O)Nc1cnc(OC[C@H](O)CO)cn1)[C@H]1CCN2C1` (single isomer, unassigned) [Example 260], the Emax was greater than 150% and the “TRP Activity (EC1.5, concentration of test compound that results in 150% activation of SIRT1)” value is reported as “B (EC1.5 1-25 μM)”.

Take `C[C@@H](NC(=O)c1ccc2c(n1)N(C(=O)Nc1ccc(F)cn1)[C@H]1CCN2C1)C(F)(F)F` [Example 129, (4S)—N5-(5-fluoropyridin-2-yl)-N7-((R)-1,1,1-trifluoropropan-2-yl)-3,4-dihydro-1,4-methanopyrido[2,3-b][1,4]diazepine-5,7(2H)-dicarboxamide]: the Emax was greater than 150% and the “TRP Activity (EC1.5, concentration of test compound that results in 150% activation of SIRT1)” value is recorded as “A (EC1.5<1 μM)”.

As to `O=C(NCC1CC1)c1ccc2c(n1)N(C(=O)Nc1ncccn1)[C@H]1CCN2C1` [Example 97, (4S)—N7-(cyclopropylmethyl)-N5-(pyrimidin-2-yl)-3,4-dihydro-1,4-methanopyrido[2,3-b][1,4]diazepine-5,7(2H)-dicarboxamide], the Emax was greater than 150% and the “TRP Activity (EC1.5, concentration of test compound that results in 150% activation of SIRT1)” value is “A (EC1.5<1 μM)”.

Regarding `C[C@@H](NC(=O)c1ccc2c(n1)N(C(=O)Nc1cncc(OC[C@H](O)CO)n1)[C@H]1CCN2C1)C(F)(F)F` [Example 155, (4S)—N5-(6-((R)-2,3-dihydroxypropoxy)pyrazin-2-yl)-N7-((R)-1,1,1-trifluoropropan-2-yl)-3,4-dihydro-1,4-methanopyrido[2,3-b][1,4]diazepine-5,7(2H)-dicarboxamide], the Emax was greater than 150% and the “TRP Activity (EC1.5, concentration of test compound that results in 150% activation of SIRT1)” value is “A (EC1.5<1 μM)”.

Regarding `C[C@@H](NC(=O)c1ccc2c(n1)N(C(=O)Nc1ccc(OC[C@@H](O)CO)nn1)[C@H]1CCN2C1)C(F)(F)F` [Example 234, (4S)—N5-(6-((S)-2,3-dihydroxypropoxy)pyridazin-3-yl)-N7-((R)-1,1,1-trifluoropropan-2-yl)-3,4-dihydro-1,4-methanopyrido[2,3-b][1,4]diazepine-5,7(2H)-dicarboxamide], the Emax is greater than 150% and the “TRP Activity (EC1.5, concentration of test compound that results in 150% activation of SIRT1)” value is on record as “A (EC1.5<1 μM)”.

The values are drawn from US10072011B2, “Substituted bridged urea analogs as sirtuin modulators” (GlaxoSmithKline Intellectual Property (No.2) Limited, priority 2014, dated 2018).
